Measured values published in EP1166782A2, “Anti-retroviral pharmaceutical compositions” (Yang, Chi-Chiang, priority 2000, dated 2002).
Like-named read-outs stand apart in the source and are kept apart here.

Tests used:
[1] = tested on: various HIV isolates (NL-43, JRCSF or 89.6); assay: P24 quantification, summary statements over all isolates; format: cell-based, HIV-1
Experimental: (§1) PBMCs were treated with various concentrations of CAPE, MC and PEDMC provided in Example 2 and simultaneously infected with […] and macrophage and T cells dual tropic (89.6) HIV-1 isolates. The next day, the added compounds were removed by washing methods or maintained at the same concentration. Samples were divided into two groups and the upernatants of the culture medium were collected at the 3 and 7 days after infection, respectively. The use of P24 EIA Reagent Kit of Abbott Laboratory compares the concentrations of viral P24 antigen with or without the compounds tested.

T cells-tropic (JRCSF) = assay: P24 quantification (P24 EIA) in infected PBMCs, JRCSF; format: cell-based, HIV-1; settings: PBMC; for concentrations of the viral P24 antigen, JRCSF(+): (+) original concentration of compound maintained after washing; for concentrations of the viral P24 antigen, JRCSF(-): (-) compound removed after washing
Experimental: as §1

[2] = tested on: macrophage and T cells dual tropic (89.6); assay: P24 quantification (P24 EIA) in infected PBMCs, 89.6; format: cell-based, HIV-1; settings: PBMC; for concentrations of the viral P24 antigen, 89.6(+): (+) original concentration of compound maintained after washing; for concentrations of the viral P24 antigen, 89.6(-): (-) compound removed after washing
Experimental: as §1

[3] = tested on: macrophage-tropic (NL-43); assay: P24 quantification (P24 EIA) in infected PBMCs, NL-43; format: cell-based, HIV-1; settings: PBMC; for concentrations of the viral P24 antigen, NL43(+): (+) original concentration of compound maintained after washing; for concentrations of the viral P24 antigen, NL43(-): (-) compound removed after washing
Experimental: as §1

[4] = tested on: Peripheral Blood Mononuclear Cells (PBMC); settings: for The numbers of dead cells in 400 cells' count / % viability: 48 hours; for The numbers of dead cells in 400 cells' count: control 9 dead cells; for % viability: viable cells versus control (391);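 as to all read-outs here: trypan blue dye exclusion, cells stained and counted from quadruplicate dishes, DMSO vehicle kept under 0.5%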
Experimental: Viability of the cells was assayed by the trypan blue dye exclusion method. […] The concentration of DMSO was adjusted to be less than 0.5%. Cells from quadruplicated dishes were washed once with Hank's Balanced Salt Solution (HBSS). According to the process, the floating dead cells will be separated from the live monolayer cells. Then the cells were stained with trypan blue and counted. The total number of viable cells in the control group was considered as 100% viability and the agent-treated cells were compared with the control group for the determination of % viability. The % viability of agent-treated cells was calculated from the total number of viable cells in the control group and in the agent-treated group.

## COC(=O)/C=C/c1ccc(O)c(O)c1 [MC, methyl caffeate]
[1]; Figures 3-5, PBMC infected with NL-43, JRCSF or 89.6
  viral replications (result in words): significantly inhibited viral replications
[1]; at the concentration of 100 µM or less, various HIV isolates
  inhibit viral replication: 100%
T cells-tropic (JRCSF); 0.1 µM
  concentrations of the viral P24 antigen, JRCSF(+): 1000 unit
  concentrations of the viral P24 antigen, JRCSF(-): 1000 unit
T cells-tropic (JRCSF); 0.5 µM
  concentrations of the viral P24 antigen, JRCSF(+): 1000 unit
  concentrations of the viral P24 antigen, JRCSF(-): 1000 unit
T cells-tropic (JRCSF); 1 µM
  concentrations of the viral P24 antigen, JRCSF(+): 1000 unit
  concentrations of the viral P24 antigen, JRCSF(-): 1000 unit
T cells-tropic (JRCSF); 5 µM
  concentrations of the viral P24 antigen, JRCSF(+): 58.13 unit
  concentrations of the viral P24 antigen, JRCSF(-): 1000 unit
T cells-tropic (JRCSF); 10 µM
  concentrations of the viral P24 antigen, JRCSF(+): 2.53 unit
  concentrations of the viral P24 antigen, JRCSF(-): 828.46 unit
T cells-tropic (JRCSF); 25 µM
  concentrations of the viral P24 antigen, JRCSF(+): 2.33 unit
  concentrations of the viral P24 antigen, JRCSF(-): 786.67 unit
T cells-tropic (JRCSF); 50 µM
  concentrations of the viral P24 antigen, JRCSF(+): 0 unit
  concentrations of the viral P24 antigen, JRCSF(-): 42.64 unit
T cells-tropic (JRCSF); 100 µM
  concentrations of the viral P24 antigen, JRCSF(+): 0 unit
  concentrations of the viral P24 antigen, JRCSF(-): 0 unit
T cells-tropic (JRCSF); 200 µM
  concentrations of the viral P24 antigen, JRCSF(+): 0 unit
  concentrations of the viral P24 antigen, JRCSF(-): 0 unit
T cells-tropic (JRCSF); 400 µM
  concentrations of the viral P24 antigen, JRCSF(+): 0 unit
  concentrations of the viral P24 antigen, JRCSF(-): 0 unit
[2]; 0.1 µM
  concentrations of the viral P24 antigen, 89.6(+): 1000 unit
  concentrations of the viral P24 antigen, 89.6(-): 1000 unit
[2]; 0.5 µM
  concentrations of the viral P24 antigen, 89.6(+): 954.88 unit
  concentrations of the viral P24 antigen, 89.6(-): 1000 unit
[2]; 1 µM
  concentrations of the viral P24 antigen, 89.6(+): 149.67 unit
  concentrations of the viral P24 antigen, 89.6(-): 966.67 unit
[2]; 5 µM
  concentrations of the viral P24 antigen, 89.6(+): 66.78 unit
  concentrations of the viral P24 antigen, 89.6(-): 1000 unit
[2]; 10 µM
  concentrations of the viral P24 antigen, 89.6(+): 14.36 unit
  concentrations of the viral P24 antigen, 89.6(-): 624.39 unit
[2]; 25 µM
  concentrations of the viral P24 antigen, 89.6(+): 5.2 unit
  concentrations of the viral P24 antigen, 89.6(-): 504.42 unit
[2]; 50 µM
  concentrations of the viral P24 antigen, 89.6(+): 18.4 unit
  concentrations of the viral P24 antigen, 89.6(-): 286.46 unit
[2]; 100 µM
  concentrations of the viral P24 antigen, 89.6(+): 8.91 unit
  concentrations of the viral P24 antigen, 89.6(-): 278.43 unit
[2]; 200 µM
  concentrations of the viral P24 antigen, 89.6(+): 0 unit
  concentrations of the viral P24 antigen, 89.6(-): 124.97 unit
[2]; 400 µM
  concentrations of the viral P24 antigen, 89.6(+): 0 unit
  concentrations of the viral P24 antigen, 89.6(-): 0 unit
[3]; 0.1 µM
  concentrations of the viral P24 antigen, NL43(+): 1000 unit
  concentrations of the viral P24 antigen, NL43(-): 1000 unit
[3]; 0.5 µM
  concentrations of the viral P24 antigen, NL43(+): 1000 unit
  concentrations of the viral P24 antigen, NL43(-): 1000 unit
[3]; 1 µM
  concentrations of the viral P24 antigen, NL43(+): 1000 unit
  concentrations of the viral P24 antigen, NL43(-): 1000 unit
[3]; 5 µM
  concentrations of the viral P24 antigen, NL43(+): 1000 unit
  concentrations of the viral P24 antigen, NL43(-): 1000 unit
[3]; 10 µM
  concentrations of the viral P24 antigen, NL43(+): 1000 unit
  concentrations of the viral P24 antigen, NL43(-): 1000 unit
[3]; 25 µM
  concentrations of the viral P24 antigen, NL43(+): 220.63 unit
  concentrations of the viral P24 antigen, NL43(-): 1000 unit
[3]; 50 µM
  concentrations of the viral P24 antigen, NL43(+): 273.07 unit
  concentrations of the viral P24 antigen, NL43(-): 922.63 unit
[3]; 100 µM
  concentrations of the viral P24 antigen, NL43(+): 0 unit
  concentrations of the viral P24 antigen, NL43(-): 687.24 unit
[3]; 200 µM
  concentrations of the viral P24 antigen, NL43(+): 0 unit
  concentrations of the viral P24 antigen, NL43(-): 518.45 unit
[3]; 400 µM
  concentrations of the viral P24 antigen, NL43(+): 0 unit
  concentrations of the viral P24 antigen, NL43(-): 2.53 unit
[4]; 0.1 µM
  The numbers of dead cells in 400 cells' count: 9
  % viability: 391/391 (100%)
[4]; 0.5 µM
  The numbers of dead cells in 400 cells' count: 7
  % viability: 393/391 (100.5%)
[4]; 1 µM
  The numbers of dead cells in 400 cells' count: 12
  % viability: 388/391 (99.2%)
[4]; 5 µM
  The numbers of dead cells in 400 cells' count: 9
  % viability: 391/391 (100%)
[4]; 10 µM
  The numbers of dead cells in 400 cells' count: 7
  % viability: 393/391 (100.5%)
[4]; 25 µM
  The numbers of dead cells in 400 cells' count: 11
  % viability: 389/391 (99.5%)
[4]; 50 µM
  The numbers of dead cells in 400 cells' count: 11
  % viability: 389/391 (99.5%)
[4]; 100 µM
  The numbers of dead cells in 400 cells' count: 7
  % viability: 393/391 (100.5%)
[4]; 200 µM
  The numbers of dead cells in 400 cells' count: 8
  % viability: 392/391 (100.3%)
[4]; 400 µM
  The numbers of dead cells in 400 cells' count: 7
  % viability: 393/391 (100.5%)
[4]; high dose up to 400 µM compared with 0.1-10 µM
  viabilities of PBMC under high-dose versus low-dose treatments (result in words): no substantial differences
